Molecular target: CECR2 (Homo sapiens (Human), UniProt Q9BXF3)
Experiment: CECR2 TR-FRET binding assay
Conditions: biotinylated probe compound 1001, TR-FRET
Text: IC50 Measurements for Inhibitors Using CECR2 TR-FRET Binding Assay
His/Flag epitope tagged CECR2424-538 was cloned, expressed, and purified to homogeneity.

Chain of CECR2 (Q9BXF3 424-538 limits assumed): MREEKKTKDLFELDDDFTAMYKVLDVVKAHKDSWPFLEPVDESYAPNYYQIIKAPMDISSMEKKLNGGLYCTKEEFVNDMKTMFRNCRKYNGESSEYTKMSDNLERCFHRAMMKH

With `COCCC(=O)Nc1ccc(-c2cn(C)c(=O)c3[nH]ccc23)cc1` [Example 7, 3-methoxy-N-[4-(6-methyl-7-oxo-1H-pyrrolo[2,3-c]pyridin-4-yl)phenyl]propanamide] as the compound, how does the IC50 read?
The IC50 was 170 nM.

For `CC1Oc2cc(-c3cn(C)c(=O)c4[nH]ccc34)ccc2NC1=O` (stereo not shown) [Example 16, 2-methyl-7-(6-methyl-7-oxo-1H-pyrrolo[2,3-c]pyridin-4-yl)-4H-1,4-benzoxazin-3-one], which IC50 is on record?
Its IC50 is 36 nM.

Which IC50 does the source give for `CN(C)C(=O)c1ccc(-c2cn(C)c(=O)c3[nH]ccc23)cc1` [Example 18, N,N-dimethyl-4-(6-methyl-7-oxo-1H-pyrrolo[2,3-c]pyridin-4-yl)benzamide] here?
Its IC50 is 730 nM.

For `CCn1cc(-c2cccc(C(=O)N(C)C)c2)c2cc[nH]c2c1=O` [Example 20, 3-(6-ethyl-7-oxo-1H-pyrrolo[2,3-c]pyridin-4-yl)-N,N-dimethyl-benzamide], which IC50 is on record?
The IC50 was 1300 nM.

For `CN1CCN(C(=O)c2ccc(-c3cn(C)c(=O)c4[nH]ccc34)cc2)CC1=O` [Example 26, 6-methyl-4-(4-(4-methyl-3-oxopiperazine-1-carbonyl)phenyl)-1H-pyrrolo[2,3-c]pyridin-7(6H)-one], which IC50 is on record?
The IC50 was 240 nM.

With `Cn1cc(-c2ccc(C(=O)N3CC(F)(F)C3)cc2)c2cc[nH]c2c1=O` [Example 28, 4-[4-(3,3-difluoroazetidine-1-carbonyl)phenyl]-6-methyl-1H-pyrrolo[2,3-c]pyridin-7-one] as the compound, how does the IC50 read?
Its IC50 is 130 nM.

How did the IC50 turn out when `Cn1cc(-c2ccc(C(=O)Nc3ccccc3)cc2)c2cc[nH]c2c1=O` [Example 35, 4-(6-methyl-7-oxo-1H-pyrrolo[2,3-c]pyridin-4-yl)-N-phenyl-benzamide] was run?
The IC50 was 75 nM.

How did the IC50 turn out when `CN1CCc2cc(-c3cn(C)c(=O)c4[nH]ccc34)ccc2C1` [Example 44, 6-methyl-4-(2-methyl-3,4-dihydro-1H-isoquinolin-6-yl)-1H-pyrrolo[2,3-c]pyridin-7-one] was run?
Its IC50 is 54 nM.

With `Cc1cc2c(-c3cccc(C(=O)N(C)C)c3)cn(C)c(=O)c2[nH]1` [Example 47, 3-(2,6-dimethyl-7-oxo-1H-pyrrolo[2,3-c]pyridin-4-yl)-N,N-dimethyl-benzamide] as the compound, how does the IC50 read?
The IC50 was 130 nM.

Molecular target: BRD4(BD1) (Homo sapiens (Human), UniProt O60885)
Experiment: BRD4 AlphaLisa binding assay
Conditions: biotinylated H4-tetraacetyl peptide
Text: IC50 Measurements for Inhibitors Using BRD4 AlphaLisa Binding Assay

For `Cn1cc(-c2ccccc2)c2cc[nH]c2c1=O` [Example 1, 6-methyl-4-phenyl-1H-pyrrolo[2,3-c]pyridin-7(6H)-one], which IC50 is on record?
The IC50 was 540 nM.

Which IC50 does the source give for `Cn1cc(-c2ccc3c(c2)CC(=O)N3)c2cc[nH]c2c1=O` [Example 2, 6-methyl-4-(2-oxoindolin-5-yl)-1H-pyrrolo[2,3-c]pyridin-7-one] here?
Its IC50 is 210 nM.

Which IC50 does the source give for `Cn1cc(-c2ccc3c(c2)CCCN3C(=O)OC(C)(C)C)c2cc[nH]c2c1=O` [Example 4, tert-butyl 6-(6-methyl-7-oxo-1H-pyrrolo[2,3-c]pyridin-4-yl)-3,4-dihydro-2H-quinoline-1-carboxylate] here?
The IC50 was 110 nM.

Which IC50 does the source give for `Cn1cc(-c2ccc3c(c2)N2C(=O)CCC2C(=O)N3)c2cc[nH]c2c1=O` (stereo not shown) [Example 9, 8-(6-methyl-7-oxo-6,7-dihydro-1H-pyrrolo[2,3-c]pyridin-4-yl)-3,3a-dihydropyrrolo[1,2-a]quinoxaline-1,4(2H,5H)-dione] here?
The IC50 was 310 nM.

With `CC1Nc2cc(-c3cn(C)c(=O)c4[nH]ccc34)ccc2NC1=O` (stereo not shown) [Example 10, 3-methyl-6-(6-methyl-7-oxo-1H-pyrrolo[2,3-c]pyridin-4-yl)-3,4-dihydro-1H-quinoxalin-2-one] as the compound, how does the IC50 read?
Its IC50 is 110 nM.

Which IC50 does the source give for `CC1CC(=O)Nc2ccc(-c3cn(C)c(=O)c4[nH]ccc34)cc2N1` (stereo not shown) [Example 13, 4-methyl-7-(6-methyl-7-oxo-1H-pyrrolo[2,3-c]pyridin-4-yl)-1,3,4,5-tetrahydro-1,5-benzodiazepin-2-one] here?
Its IC50 is 170 nM.

How did the IC50 turn out when `CC(C)c1nc2cc(-c3cn(C)c(=O)c4[nH]ccc34)ccc2[nH]c1=O` [Example 14, 3-isopropyl-6-(6-methyl-7-oxo-1H-pyrrolo[2,3-c]pyridin-4-yl)-1H-quinoxalin-2-one] was run?
Its IC50 is 110 nM.

Which IC50 does the source give for `Cn1cc(-c2ccc3c(c2)N2CCCC2CC(=O)N3)c2cc[nH]c2c1=O` (stereo not shown) [Example 15, 2-(6-methyl-7-oxo-1H-pyrrolo[2,3-c]pyridin-4-yl)-5,7,7a,8,9,10-hexahydropyrrolo[2,1-d][1,5]benzodiazepin-6-one] here?
Its IC50 is 81 nM.

Which IC50 does the source give for `Cn1cc(-c2ccc3c(c2)NC(c2cccs2)CC(=O)N3)c2cc[nH]c2c1=O` (stereo not shown) [Example 17, 7-(6-methyl-7-oxo-1H-pyrrolo[2,3-c]pyridin-4-yl)-4-(2-thienyl)-1,3,4,5-tetrahydro-1,5-benzodiazepin-2-one] here?
The IC50 was 58 nM.

Which IC50 does the source give for `Cn1cc(-c2cccc(C(N)=O)c2)c2cc[nH]c2c1=O` [Example 21, 3-(6-methyl-7-oxo-1H-pyrrolo[2,3-c]pyridin-4-yl)benzamide] here?
The IC50 was 180 nM.

Which IC50 does the source give for `Cn1cc(-c2cccc(C#N)c2)c2cc[nH]c2c1=O` [Example 23, 3-(6-methyl-7-oxo-1H-pyrrolo[2,3-c]pyridin-4-yl)benzonitrile] here?
Its IC50 is 150 nM.

Which IC50 does the source give for `Cn1cc(-c2ccc(CO)cc2)c2cc[nH]c2c1=O` [Example 25, 4-[4-(hydroxymethyl)phenyl]-6-methyl-1H-pyrrolo[2,3-c]pyridin-7-one] here?
The IC50 was 710 nM.

`Cn1cc(-c2ccc(C(=O)N3CC(F)C3)cc2)c2cc[nH]c2c1=O` [Example 27, 4-[4-(3-fluoroazetidine-1-carbonyl)phenyl]-6-methyl-1H-pyrrolo[2,3-c]pyridin-7-one] was tested. Which IC50 did it give?
The IC50 was 84 nM.

`Cn1cc(-c2ccc(C(=O)N3CCCC3)cc2)c2cc[nH]c2c1=O` [Example 29, 6-methyl-4-[4-(pyrrolidine-1-carbonyl)phenyl]-1H-pyrrolo[2,3-c]pyridin-7-one] was tested. Which IC50 did it give?
The IC50 was 280 nM.

Which IC50 does the source give for `CC1CCN(C(=O)c2ccc(-c3cn(C)c(=O)c4[nH]ccc34)cc2)CC1` [Example 31, 6-methyl-4-[4-(4-methylpiperidine-1-carbonyl)phenyl]-1H-pyrrolo[2,3-c]pyridin-7-one] here?
Its IC50 is 170 nM.

With `CC(=O)N1CCN(C(=O)c2ccc(-c3cn(C)c(=O)c4[nH]ccc34)cc2)CC1` [Example 32, 4-[4-(4-acetylpiperazine-1-carbonyl)phenyl]-6-methyl-1H-pyrrolo[2,3-c]pyridin-7-one] as the compound, how does the IC50 read?
The IC50 was 320 nM.

Which IC50 does the source give for `Cn1cc(-c2ccc(C(=O)N3CCC(C(N)=O)CC3)cc2)c2cc[nH]c2c1=O` [Example 33, 1-[4-(6-methyl-7-oxo-1H-pyrrolo[2,3-c]pyridin-4-yl)benzoyl]piperidine-4-carboxamide] here?
Its IC50 is 260 nM.

With `Cn1cc(-c2ccc(C(=O)Nc3cccnc3)cc2)c2cc[nH]c2c1=O` [Example 34, 4-(6-methyl-7-oxo-1H-pyrrolo[2,3-c]pyridin-4-yl)-N-(3-pyridyl)benzamide] as the compound, how does the IC50 read?
Its IC50 is 51 nM.

Which IC50 does the source give for `CN(C(=O)c1ccc(-c2cn(C)c(=O)c3[nH]ccc23)cc1)c1ccccc1` [Example 36, N-methyl-4-(6-methyl-7-oxo-1H-pyrrolo[2,3-c]pyridin-4-yl)-N-phenyl-benzamide] here?
Its IC50 is 340 nM.

With `CN(CC#N)C(=O)c1ccc(-c2cn(C)c(=O)c3[nH]ccc23)cc1` [Example 38, N-(cyanomethyl)-N-methyl-4-(6-methyl-7-oxo-1H-pyrrolo[2,3-c]pyridin-4-yl)benzamide] as the compound, how does the IC50 read?
The IC50 was 200 nM.

Molecular target: TAF1-BD2 (Homo sapiens, UniProt P21675)
Experiment: TAF1-BD2 TR-FRET binding assay
Conditions: Assay: TAF-1; biotinylated probe compound 1000, TR-FRET
Description: Specifically, in a 384 well ProxiPlate TAF1-BD2 (6 nM final) was combined with biotin-ligand (50 nM final) in 50 mM HEPES (pH 7.5), 50 mM NaCl, 1 mM TCEP, 0.01% (w/v) BSA, and 0.008% (w/v) Brij-35 either in the presence of DMSO (final 0.2% DMSO) or compound dilution series in DMSO. After 10 minutes incubation at room temperature, a mixture Eu-W1024 Anti-6×His antibody (Perkin Elmer AD0110) and SureLight™ Allophycocyanin-Streptavidin (APC-SA, Perkin Elmer CR130-100) were added to a final concentrations of 0.2 nMolar antibody and 25 nMolar APC-SA, respectively. After twenty minutes of equilibration, the plates were read on an Envision instrument and IC50s calculated using a four parameter non-linear curve fit.

Which IC50 does the source give for `CNC(=O)c1cccc(-c2cn(C)c(=O)c3[nH]ccc23)c1` [Example 24, N-methyl-3-(6-methyl-7-oxo-1H-pyrrolo[2,3-c]pyridin-4-yl)benzamide] here?
Its IC50 is 96 nM.

Molecular target: BRD9 (Homo sapiens (Human), UniProt Q9H8M2)
Sequence (Q9H8M2 134-239 limits assumed): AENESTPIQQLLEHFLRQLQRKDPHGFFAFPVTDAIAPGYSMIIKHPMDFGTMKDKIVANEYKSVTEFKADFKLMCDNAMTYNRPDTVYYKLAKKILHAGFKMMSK
Experiment: BRD9 AlphaLisa binding assay
Conditions: biotinylated H4-tetraacetyl peptide
Description: After 20 minutes incubation at room temperature AlphaLisa Streptavidin Acceptor Beads (Perkin-A[…]) and AlphaLisa Nickel donor beads (Perkin AS 10 ID) were added to a final concentration of 15 ug/mL each.

For `COCCNC(=O)c1ccc(-c2cn(C)c(=O)c3[nH]ccc23)cc1` [Example 3, N-(2-methoxyethyl)-4-(6-methyl-7-oxo-1H-pyrrolo[2,3-c]pyridin-4-yl)benzamide], which IC50 is on record?
The IC50 was 24 nM.

Which IC50 does the source give for `Cn1cc(-c2ccc3c(c2)N(C(=O)OC(C)(C)C)CCC3)c2cc[nH]c2c1=O` [Example 5, tert-butyl 7-(6-methyl-7-oxo-1H-pyrrolo[2,3-c]pyridin-4-yl)-3,4-dihydro-2H-quinoline-1-carboxylate] here?
Its IC50 is 130 nM.

`Cn1cc(-c2ccc(NC(=O)OC(C)(C)C)cc2)c2cc[nH]c2c1=O` [Example 6, tert-butyl N-[4-(6-methyl-7-oxo-1H-pyrrolo[2,3-c]pyridin-4-yl)phenyl]carbamate] was tested. Which IC50 did it give?
Its IC50 is 85 nM.

How did the IC50 turn out when `CC1CNc2cc(-c3cn(C)c(=O)c4[nH]ccc34)ccc2NC1=O` (stereo not shown) [Example 11, 3-methyl-7-(6-methyl-7-oxo-1H-pyrrolo[2,3-c]pyridin-4-yl)-1,3,4,5-tetrahydro-1,5-benzodiazepin-2-one] was run?
The IC50 was 31 nM.

`Cn1cc(-c2ccc3c(c2)NCCC(=O)N3)c2cc[nH]c2c1=O` [Example 12, 7-(6-methyl-7-oxo-1H-pyrrolo[2,3-c]pyridin-4-yl)-1,3,4,5-tetrahydro-1,5-benzodiazepin-2-one] was tested. Which IC50 did it give?
Its IC50 is 25 nM.

`CCCn1cc(-c2cccc(C(=O)N(C)C)c2)c2cc[nH]c2c1=O` [Example 19, N,N-dimethyl-3-(7-oxo-6-propyl-1H-pyrrolo[2,3-c]pyridin-4-yl)benzamide] was tested. Which IC50 did it give?
Its IC50 is 238 nM.

How did the IC50 turn out when `Cn1cc(-c2ccc(C(C)(C)O)cc2)c2cc[nH]c2c1=O` [Example 39, 4-[4-(1-hydroxy-1-methyl-ethyl)phenyl]-6-methyl-1H-pyrrolo[2,3-c]pyridin-7-one] was run?
The IC50 was 21 nM.

Which IC50 does the source give for `CC(C)(O)c1ccc(-c2cn(C3CC3)c(=O)c3[nH]ccc23)cc1` [Example 41, 6-cyclopropyl-4-(4-(2-hydroxypropan-2-yl)phenyl)-1H-pyrrolo[2,3-c]pyridin-7(6H)-one] here?
Its IC50 is 110 nM.

How did the IC50 turn out when `CN1CCC(c2ccc(-c3cn(C)c(=O)c4[nH]ccc34)cc2)CC1` [Example 42, 6-methyl-4-[4-(1-methyl-4-piperidyl)phenyl]-1H-pyrrolo[2,3-c]pyridin-7-one] was run?
The IC50 was 53 nM.

`CN1CCC(Cc2ccc(-c3cn(C)c(=O)c4[nH]ccc34)cc2)CC1` [Example 45, 6-methyl-4-[4-[(1-methyl-4-piperidyl)methyl]phenyl]-1H-pyrrolo[2,3-c]pyridin-7-one] was tested. Which IC50 did it give?
Its IC50 is 64 nM.

Source: patent US10150767B2, “Therapeutic compounds and uses thereof” (priority 2014, dated 2018)
